Experimental data published in PubChem BioAssay AID1259407 (Chemical Carcinogenesis Research Information System (CCRIS), 2018).
Active and inactive are the calls of the source. No rule for the calls is given here.

Tested on: CCRIS mutagenicity, Ames/micronucleus/aberration tests
Assay: CCRIS mutagenicity studies

Measured: mutagenic call

COC(=O)CCl
inactive: Test System: AMES SALMONELLA TYPHIMURIUM, Strain/Indicator: TA102, Metabolic Activation: NONE, Method: STANDARD PLATE inactive; negative | Test System: AMES SALMONELLA TYPHIMURIUM, Strain/Indicator: TA2638, Metabolic Activation: NONE, Method: STANDARD PLATE inactive; negative | Test System: E. COLI, Strain/Indicator: WP2 (PKM101), Metabolic Activation: NONE, Method: STANDARD PLATE inactive; negative | Test System: E. COLI, Strain/Indicator: WP2 UVRA (PKM101), Metabolic Activation: NONE, Method: STANDARD PLATE inactive; negative

O=S(=O)(C(Cl)(Cl)Cl)C(Cl)(Cl)Cl
inactive: Test System: MOUSE LYMPHOMA, Strain/Indicator: L5178Y (TK+/TK-), Metabolic Activation: NONE, Method: SUSPENSION/PLATE inactive; negative. reevaluation of results: positive | Test System: MOUSE LYMPHOMA, Strain/Indicator: L5178Y (TK+/TK-), Metabolic Activation: RAT, LIVER, S-9, AROCLOR 1254, Method: SUSPENSION/PLATE inactive; negative. reevaluation of results: negative

C=C(C)C(=O)OCCCCCCCC(C)C
inactive: Test System: AMES SALMONELLA TYPHIMURIUM, Strain/Indicator: TA97, Metabolic Activation: HAMSTER, LIVER, S-9, AROCLOR 1254 (10 OR 30%), Method: PREINCUBATION inactive; negative | Test System: AMES SALMONELLA TYPHIMURIUM, Strain/Indicator: TA97, Metabolic Activation: NONE, Method: PREINCUBATION inactive; negative | Test System: AMES SALMONELLA TYPHIMURIUM, Strain/Indicator: TA97, Metabolic Activation: RAT, LIVER, S-9, AROCLOR 1254 (10 OR 30%), Method: PREINCUBATION inactive; negative | Test System: AMES SALMONELLA TYPHIMURIUM, Strain/Indicator: TA98, Metabolic Activation: HAMSTER, LIVER, S-9, AROCLOR 1254 (10 OR 30%), Method: PREINCUBATION inactive; negative | Test System: AMES SALMONELLA TYPHIMURIUM, Strain/Indicator: TA98, Metabolic Activation: NONE, Method: PREINCUBATION inactive; negative | Test System: AMES SALMONELLA TYPHIMURIUM, Strain/Indicator: TA98, Metabolic Activation: RAT, LIVER, S-9, AROCLOR 1254 (10 OR 30%), Method: PREINCUBATION inactive; negative | Test System: AMES SALMONELLA TYPHIMURIUM, Strain/Indicator: TA100, Metabolic Activation: HAMSTER, LIVER, S-9, AROCLOR 1254 (10 OR 30%), Method: PREINCUBATION inactive; negative | Test System: AMES SALMONELLA TYPHIMURIUM, Strain/Indicator: TA100, Metabolic Activation: NONE, Method: PREINCUBATION inactive; negative | Test System: AMES SALMONELLA TYPHIMURIUM, Strain/Indicator: TA100, Metabolic Activation: RAT, LIVER, S-9, AROCLOR 1254 (10 OR 30%), Method: PREINCUBATION inactive; negative | Test System: AMES SALMONELLA TYPHIMURIUM, Strain/Indicator: TA1535, Metabolic Activation: HAMSTER, LIVER, S-9, AROCLOR 1254 (10 OR 30%), Method: PREINCUBATION inactive; negative | Test System: AMES SALMONELLA TYPHIMURIUM, Strain/Indicator: TA1535, Metabolic Activation: NONE, Method: PREINCUBATION inactive; negative | Test System: AMES SALMONELLA TYPHIMURIUM, Strain/Indicator: TA1535, Metabolic Activation: RAT, LIVER, S-9, AROCLOR 1254 (10 OR 30%), Method: PREINCUBATION inactive; negative
